Consider one compound from article PMC3552057 (Biochemistry, 2013).

This assay addresses T1, HpxO (Klebsiella pneumoniae, UniProt A6T923).
T1 sequence (A6T923 1-384): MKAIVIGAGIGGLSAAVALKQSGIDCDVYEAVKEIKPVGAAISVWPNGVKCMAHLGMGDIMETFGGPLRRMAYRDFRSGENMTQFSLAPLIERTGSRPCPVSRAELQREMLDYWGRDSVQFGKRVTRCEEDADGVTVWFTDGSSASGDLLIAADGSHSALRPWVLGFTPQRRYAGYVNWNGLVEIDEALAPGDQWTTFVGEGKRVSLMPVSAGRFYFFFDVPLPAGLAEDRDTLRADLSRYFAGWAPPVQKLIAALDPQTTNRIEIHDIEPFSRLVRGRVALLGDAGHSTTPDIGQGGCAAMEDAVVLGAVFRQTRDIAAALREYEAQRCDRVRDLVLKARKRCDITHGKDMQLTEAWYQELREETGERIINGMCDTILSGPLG
Description: X-ray crystal structure, […] Å. The assay is classed as binding. The settings on record: SeMet HpxO without uric acid; FAD in the in conformation.

Molecules are shown by their SMILES.

As for `Cc1cc2nc3c(=O)[nH]c(=O)nc-3n(C[C@H](O)[C@H](O)[C@H](O)COP(=O)(O)OP(=O)(O)OC[C@H]3O[C@@H](n4cnc5c(N)ncnc54)[C@H](O)[C@@H]3O)c2cc1C` [FAD], the “X-ray crystal structure, 2.2 Å” value is on record as “One FAD molecule binds to the HpxO monomer in an extended conformation”.
